These results are taken from US10604509B2, “Nrf2 regulators” (GlaxoSmithKline Intellectual Property Development Limited, priority 2015, dated 2020).

Where a name gives a salt, the structure may show the parent alone.

In one experiment the test system is NQO1 specific enzyme activity in BEAS-2B cells. The experiment can be described thus: BEAS-2B NQO1 MTT assay. Type of experiment: cell-based. Particulars: BEAS-2B cells, 48 hours with compound, MTT readout; read-out: EC50 of NQO1 specific activity induction. In short, it runs like this: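 BEAS-2B cells treated with compound 48 h at 37° C, 5% CO2, then lysed; NQO1 activity in lysate measured kinetically by MTT cocktail at Absorbance 570 nm over 30 min. EC50 for induction from Delta OD/min versus log concentration, 3-parameter fit; Cell Titer Glo run on lysate aliquot.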
(In general: Tetrazolium assays rely on reduction of a dye to a coloured formazan, in cell work by metabolically active cells.)
Take `CC[C@@H]1CN(Cc2cc(C(CCc3cn(CC)nn3)C(C)C(=O)O)ccc2C)Cc2ccccc2O1` (single isomer, unassigned; isomer 1) [Example 118]: the EC50 is 1000 to 10000 nM.

Regarding `CC[C@@H]1CN(Cc2cc(C(CCc3cn(CC)nn3)C(C)(C)C(=O)O)ccc2C)Cc2ncccc2O1` (single isomer, unassigned) [Example 251], the EC50 was in the range of 1 to 10 nM.

The experiment is the same for the next values; noted with them: Homo sapiens, BEAS-2B, 48 h, BEAS-2B cells, 48 hours with compound, MTT readout; read-out: EC50 of NQO1 specific activity induction.
As for `CC[C@@H]1CN(Cc2cc([C@@H](CC(=O)O)c3ccc4c(nnn4C)c3C)ccc2C)Cc2cnccc2O1` [Example 43, (R)-3-(1,4-Dimethyl-1H-benzo[d][1,2,3]triazol-5-yl)-3-(3-(((R)-2-ethyl-2,3-dihydropyrido[3,4-f][1,4]oxazepin-4(5H)-yl)methyl)-4-methylphenyl)propanoic Acid, Formic Acid Salt], the EC50 was in the range of 1000 to 10000 nM.

Turning to `CC[C@@H]1CN(Cc2cc([C@H](CC(=O)O)c3ccc4c(nnn4CC)c3C)ccc2C)Cc2ccccc2O1` [Example 68, (S)-3-(3-(((R)-2-Ethyl-2,3-dihydrobenzo[f][1,4]oxazepin-4(5H)-yl)methyl)-4-methylphenyl)-3-(1-ethyl-4-methyl-1H-benzo[d][1,2,3]triazol-5-yl)propanoic Acid, Formic Acid Salt], the EC50 was in the range of 10 to 100 nM.

On to `CC[C@@H]1CN(Cc2cc([C@@H](c3ccc4c(nnn4C)c3C)C(C)(C)C(=O)O)ccc2C)Cc2ccncc2O1` [Example 219, (S)-3-(1,4-Dimethyl-1H-benzo[d][1,2,3]triazol-5-yl)-3-(3-(((R)-2-ethyl-2,3-dihydropyrido[4,3-f][1,4]oxazepin-4(5H)-yl)methyl)-4-methylphenyl)-2,2-dimethylpropanoic Acid, Trifluoroacetate], for which the EC50 was 1 to 10 nM.

On to `Cc1ccc(C(CC(=O)O)c2ccc3c(nnn3C)c2C)cc1CN(C)Cc1ccccc1Br` (stereo not shown) [Example 15, Ammonium 3-(3-(((2-bromobenzyl)(methyl)amino)methyl)-4-methylphenyl)-3-(1,4-dimethyl-1H-benzo[d][1,2,3]triazol-5-yl)propanoate], for which the EC50 lay within 1000 to 10000 nM.

On to `CC[C@@H]1CN(Cc2cc(C(CC(=O)O)c3ccc4c(nnn4C)c3C)ccc2C)Cc2cccc(F)c2O1` (stereo partly drawn) [Example 80, 3-(1,4-Diemthyl-1H-benzo[d][1,2,3]triazol-5-yl)-3-(3-(((R)-2-ethyl-9-fluoro-2,3-dihydrobenzo[f][1,4]oxazepin-4(5H)-yl)methyl)-4-methylphenyl)propanoic acid, formic acid salt], for which the EC50 was 10 to 100 nM.

For the compound `Cc1ccc(C(CC(=O)O)c2ccc3c(nnn3C)c2C)cc1CN1CCCC1c1nnc(C(C)C)[nH]1` (stereo not shown) [Example 10, Ammonium 3-(1,4-dimethyl-1H-benzo[d][1,2,3]triazol-5-yl)-3-(3-((2-(5-isopropyl-4H-1,2,4-triazol-3-yl)pyrrolidin-1-yl)methyl)-4-methylphenyl)propanoate], the EC50 was 1000 to 10000 nM.

Turning to `CCC1CN(Cc2cc([C@@H](c3ccc4c(nnn4C)c3C)C(C)C(=O)O)ccc2C)Cc2ccccc2O1` (stereo partly drawn) [Example 100, (3S)-3-(1,4-dimethyl-1H-benzo[d][1,2,3]triazol-5-yl)-3-(3-((2-ethyl-2,3-dihydrobenzo[f][1,4]oxazepin-4(5H)-yl)methyl)-4-methylphenyl)-2-methylpropanoic Acid], the concentration for a half-maximal effect (EC50) was in the range of 10 to 100 nM.

Take `CC[C@@H]1CN(Cc2cc([C@@H](CC(=O)O)c3ccc4c(nnn4CC)c3Cl)ccc2C)Cc2ccccc2O1` [Example 67, (R)-3-(4-Chloro-1-ethyl-1H-benzo[d][1,2,3]triazol-5-yl)-3-(3-(((R)-2-ethyl-2,3-dihydrobenzo[f][1,4]oxazepin-4(5H)-yl)methyl)-4-methylphenyl)propanoate, Sodium Salt]: the EC50 lay within 10 to 100 nM.

Consider `Cc1c(C(CC(=O)O)c2ccc(Cl)c(CN3Cc4ncccc4OC(C)(C)C3)c2)ccc2c1nnn2C` (single isomer, unassigned; isomer 1) [Example 262], for which the EC50 fell in the range of 10 to 100 nM.

With `CC[C@@H]1CN(Cc2cc(C(CC(=O)O)c3ncc4c(nnn4C)c3C)ccc2C)Cc2ccccc2O1` (stereo partly drawn) [Example 48, 3-(3,7-Dimethyl-3H-[1,2,3]triazolo[4,5-c]pyridin-6-yl)-3-(3-(((R)-2-ethyl-2,3-dihydrobenzo[f][1,4]oxazepin-4(5H)-yl)methyl)-4-methylphenyl)propanoic Acid, Trifluoroacetic Acid Salt], the EC50 fell in the range of 100 to 1000 nM.

With `Cc1ccc([C@H](CC(=O)O)c2ccc3c(nnn3C)c2C)cc1CN1Cc2cc(F)ccc2OC(C)(C)C1` [Example 62, (S)-3-(1,4-Dimethyl-1H-benzo[d][1,2,3]triazol-5-yl)-3-(3-((7-fluoro-2,2-dimethyl-2,3-dihydrobenzo[f][1,4]oxazepin-4(5H)-yl)methyl)-4-methylphenyl)propanoic acid, 1.5formic acid salt], the EC50 fell in the range of 10 to 100 nM.

Turning to `CCC1c2cccn2CCN1Cc1cc(C(CC(=O)O)c2ccc3c(nnn3C)c2C)ccc1C` (stereo not shown) [Example 19, 3-(1,4-dimethyl-1H-benzo[d][1,2,3]triazol-5-yl)-3-(3-((1-ethyl-3,4-dihdyropyrrolo[1,2-a]pyrazin-2(1H)-yl)methyl)-4-methylphenyl)propanoic acid, formic acid salt], the EC50 lay in the range of 1000 to 10000 nM.

As for `CC[C@@H]1CN(Cc2cc(C(CC(=O)O)c3ccc4c(c3)nnn4C)ccc2C)Cc2ccccc2O1` (stereo partly drawn) [Example 91, 3-(3-(((R)-2-Ethyl-2,3-dihydrobenzo[f][1,4]oxazepin-4(5H)-yl)methyl)-4-methylphenyl)-3-(1-methyl-1H-benzo[d][1,2,3]triazol-5-yl)propanoic acid], the EC50 lay within 100 to 1000 nM.

Regarding `CCC1CCN(Cc2nccn2Cc2cc([C@@H](c3ccc4c(nnn4C)c3C)C(C)(C)C(=O)O)ccc2Cl)CC1` [Example 237, (S)-3-(4-Chloro-3-((2-((4-ethylpiperidin-1-yl)methyl)-1H-imidazol-1-yl)methyl)phenyl)-3-(1,4-dimethyl-1H-benzo[d][1,2,3]triazol-5-yl)-2,2-dimethylpropanoic Acid], the EC50 is below 1 nM.

Consider `Cc1ccc(C(c2ccc3c(nnn3C)c2C)C(C)(C)C(=O)O)cc1Cn1ccnc1CC1CCCOCC1` (stereo not shown) [Example 245, 3-(1,4-Dimethyl-1H-benzo[d][1,2,3]triazol-5-yl)-2,2-dimethyl-3-(4-methyl-3-((2-(oxepan-4-ylmethyl)-1H-imidazol-1-yl)methyl)phenyl)propanoic Acid], for which the EC50 lay in the range of 10 to 100 nM.

For `CC[C@@H]1CN(Cc2cc([C@@H](c3ccc4c(nnn4C)c3C)C(C)(C)C(=O)N3CCSC3=O)ccc2C)Cc2cnccc2O1` [Example 256, 3-((S)-3-(1,4-Dimethyl-1H-benzo[d][1,2,3]triazol-5-yl)-3-(3-(((R)-2-ethyl-2,3-dihydropyrido[3,4-f][1,4]oxazepin-4(5H)-yl)methyl)-4-methylphenyl)-2,2-dimethylpropanoyl)thiazolidin-2-one, Trifluoroacetic Acid Salt], the EC50 was in the range of 10 to 100 nM.

Take `CCn1nnc2c(C)c([C@H](c3ccc(C)c(CN4Cc5cnccc5OC(C)(C)C4)c3)[C@@H](C)C(=O)O)cc(Cl)c21` [Example 209, (2R,3S)-3-(7-Chloro-1-ethyl-4-methyl-1H-benzo[d][1,2,3]triazol-5-yl)-3-(3-((2,2-dimethyl-2,3-dihydropyrido[3,4-f][1,4]oxazepin-4(5H)-yl)methyl)-4-methylphenyl)-2-methylpropanoic Acid]: the concentration for a half-maximal effect (EC50) fell in the range of 1 to 10 nM.

For the compound `CC[C@@H]1CN(Cc2cc(C(CC(=O)O)c3ccc(F)cc3F)ccc2C)Cc2ccccc2O1` (stereo partly drawn) [Example 117, 3-(2,4-Difluorophenyl)-3-(3-(((R)-2-ethyl-2,3-dihydrobenzo[f][1,4]oxazepin-4(5H)-yl)methyl)-4-methylphenyl)propanoic Acid, Formic Acid Salt], the EC50 fell in the range of 1000 to 10000 nM.

Consider `CCC1CCN(Cc2nccn2Cc2cc(C(c3ccc4c(nnn4C)c3C)C(C)(C)C(=O)O)ccc2C)CC1` (stereo not shown) [Example 140, 3-(1,4-Dimethyl-1H-benzo[d][1,2,3]triazol-5-yl)-3-(3-((2-((4-ethylpiperidin-1-yl)methyl)-1H-imidazol-1-yl)methyl)-4-methylphenyl)-2,2-dimethylpropanoic acid, formic acid salt], for which the EC50 was 1000 to 10000 nM.

Regarding `Cc1ccc([C@H](CC(=O)O)c2ccc3c(nnn3C)c2C)cc1CN1Cc2cccc(F)c2OC(C)(C)C1` [Example 178, (S)-3-(1,4-Dimethyl-1H-benzo[d][1,2,3]triazol-5-yl)-3-(3-((9-fluoro-2,2-dimethyl-2,3-dihydrobenzo[f][1,4]oxazepin-4(5H)-yl)methyl)-4-methylphenyl)propanoic acid], the EC50 lay in the range of 10 to 100 nM.

In the case of `Cc1ccc(C(c2ccc3c(nnn3C)c2C)C(C)(C)C(=O)O)cc1Cn1ccnc1CN1CCOCC1` (stereo not shown) [Example 142, 3-(1,4-Dimethyl-1H-benzo[d][1,2,3]triazol-5-yl)-2,2-dimethyl-3-(4-methyl-3-((2-(morpholinomethyl)-1H-imidazol-1-yl)methyl)phenyl) propanoic acid, trifluoroacetic acid salt], the EC50 fell in the range of 100 to 1000 nM.

For the compound `CCn1nnc2c(C)c([C@H](c3ccc(C)c(CN4Cc5cnccc5OC(C)(C)C4)c3)[C@@H](C)C(=O)O)ccc21` [Example 196, (2R,3S)-3-(3-((2,2-Dimethyl-2,3-dihydropyrido[3,4-f][1,4]oxazepin-4(5H)-yl)methyl)-4-methylphenyl)-3-(1-ethyl-4-methyl-1H-benzo[d][1,2,3]triazol-5-yl)-2-methylpropanoic acid, Trifluoroacetic acid salt], the concentration for a half-maximal effect (EC50) was 1 to 10 nM.

Turning to `CCC1CN(Cc2cc(C(CC(=O)O)c3ccc4c(nnn4C)c3C)ccc2C)Cc2ccc(OC)cc2O1` (stereo not shown) [Example 84, 3-(1,4-Dimethyl-1H-benzo[d][1,2,3]triazol-5-yl)-3-(3-((2-ethyl-8-methoxy-2,3-dihdyrobenzo[f][1,4]oxazepin-4(5H)-yl)methyl)-4-methylphenyl)propanoic acid, form acid salt], the EC50 is 100 to 1000 nM.

In general, EC50 refers to the concentration at which the effect is half-maximal.
